Series [1] is described as follows: Inhibition of cynomolgus monkey adrenal mitochondrial CYP11B2 using corticosterone as substrate after 60 mins in presence of NADPH by mass spectrometric analysis.
Series [2] is described as follows: Inhibition of cynomolgus monkey adrenal mitochondrial CYP11B1 using 11-deoxycortisol as substrate after 90 mins in presence of NADPH by mass spectrometric analysis.
Another series is filed under the species Macaca fascicularis. Nature of the series: Selectivity index, ratio of IC50 for cynomolgus monkey adrenal mitochondrial CYP11B1 to IC50 for cynomolgus monkey adrenal mitochondrial CYP11B2.
A short description of series [3]: Clearance in human liver microsomes relative to hepatic blood flow. The series is classed as ADME, microsome. Particulars: read-out: CLH. (In general: Liver microsomes are a subcellular fraction often used to study metabolism.)
The nature of series [4]: Clearance in human hepatocytes relative to hepatic blood flow. The series is classed as ADME, cell-based, Hepatocyte. Particulars: read-out: CLH; call rule not given here.
Series [5] in a line: Drug metabolism in human hepatocytes at 10 uM after 30 mins by LC-MS/MS analysis. The class given is ADME, cell-based, Hepatocyte. To be noted: read-out: Drug metabolism.
Series [6] can be described thus: Drug metabolism in human hepatocytes assessed as 3-Amino-2-[2-(4-fluoro-phenyl)-acetyl]-5,5-dimethyl-cyclohex-2-enone metabolite formation at 10 uM after 30 mins by LC-MS/MS analysis. The class given is ADME, cell-based, Hepatocyte. Particulars: 0.5 h.
A short description of series [7]: Drug metabolism in human hepatocytes assessed as 3-Amino-2-[2-(4-fluoro-phenyl)-acetyl]-5,5-dimethyl-cyclohex-2-enone metabolite formation at 10 uM after 30 mins by HPLC analysis. The series is classed as ADME, cell-based, Hepatocyte. To be noted: 0.5 h.
Series [8] is described as follows: Drug metabolism in human hepatocytes assessed as 3-(4-fluorobenzyl)-6,6-dimethyl-4,5,6,7-tetrahydrobenzo[c]isoxazol-4-ol formation at 10 uM after 30 mins by LC-MS/MS analysis. The series is classed as ADME, cell-based, Hepatocyte. Particulars: 0.5 h.
Series [9] in a line: Drug metabolism in human hepatocytes assessed as parent compound remaining at 10 uM after 30 mins by LC-MS/MS analysis. To be noted: read-out: Stability. The class given is ADME, cell-based, Hepatocyte.
In series [10] the target is T1, Steroid 17-alpha-hydroxylase/17,20 lyase (Homo sapiens, UniProt P05093).
T1 sequence (P05093 whole entry): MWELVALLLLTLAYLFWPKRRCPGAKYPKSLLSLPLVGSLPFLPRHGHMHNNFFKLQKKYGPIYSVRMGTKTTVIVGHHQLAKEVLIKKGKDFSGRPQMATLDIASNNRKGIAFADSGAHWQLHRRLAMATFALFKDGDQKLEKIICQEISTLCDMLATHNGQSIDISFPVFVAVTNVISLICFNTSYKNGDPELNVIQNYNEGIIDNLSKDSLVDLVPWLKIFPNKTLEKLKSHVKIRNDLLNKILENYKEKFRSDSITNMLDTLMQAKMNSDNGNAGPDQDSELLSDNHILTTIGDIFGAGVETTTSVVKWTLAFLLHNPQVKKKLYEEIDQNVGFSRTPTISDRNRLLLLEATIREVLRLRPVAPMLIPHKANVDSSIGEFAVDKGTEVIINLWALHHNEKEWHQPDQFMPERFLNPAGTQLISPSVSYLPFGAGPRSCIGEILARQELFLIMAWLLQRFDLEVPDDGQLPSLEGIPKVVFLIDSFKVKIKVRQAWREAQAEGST
Nature of the series: Inhibition of CYP17A1 (unknown origin). The class given is ADME.

Series [11] addresses T2, Aromatase (Homo sapiens, UniProt P11511).
T2 sequence (P11511 whole entry): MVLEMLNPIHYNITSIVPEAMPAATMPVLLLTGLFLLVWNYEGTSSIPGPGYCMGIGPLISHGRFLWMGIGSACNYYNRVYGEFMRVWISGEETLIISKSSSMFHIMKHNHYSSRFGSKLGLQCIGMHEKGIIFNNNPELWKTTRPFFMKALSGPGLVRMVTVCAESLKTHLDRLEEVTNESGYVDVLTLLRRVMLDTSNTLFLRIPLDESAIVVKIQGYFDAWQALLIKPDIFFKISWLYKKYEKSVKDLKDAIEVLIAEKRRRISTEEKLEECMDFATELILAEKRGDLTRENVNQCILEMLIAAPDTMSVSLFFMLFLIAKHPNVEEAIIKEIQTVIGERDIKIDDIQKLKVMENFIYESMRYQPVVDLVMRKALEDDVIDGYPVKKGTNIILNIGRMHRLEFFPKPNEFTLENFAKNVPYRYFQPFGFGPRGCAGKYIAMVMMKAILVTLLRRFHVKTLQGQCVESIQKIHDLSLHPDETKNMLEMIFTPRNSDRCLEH
The series is described as follows: Inhibition of CYP19A1 (unknown origin).

The target in series [12] is T2, Aromatase. The series is described as follows: Inhibition of CYP19A1 (unknown origin) at 20 uM.
In the next series the target is Cytochrome P450 2C9 (Homo sapiens, UniProt P11712). The series is described as follows: Inhibition of CYP2C9 (unknown origin) at 30 uM. The class given is ADME.
Another series has as its target Cytochrome P450 2D6 (Homo sapiens, UniProt P10635). Nature of the series: Inhibition of CYP2D6 (unknown origin) at 30 uM. The class given is ADME.
For a further series, the target named is Cytochrome P450 3A4 (Homo sapiens, UniProt P08684). Nature of the series: Inhibition of CYP3A4 (unknown origin) at 30 uM. The series is classed as ADME.
Series [13] in a line: Clearance in Wistar Han rat hepatocytes relative to hepatic blood flow. The series is classed as ADME, cell-based, Hepatocyte. To be noted: read-out: CLH.
The nature of series [14]: Clearance in cynomolgus monkey hepatocytes relative to hepatic blood flow. To be noted: read-out: CLH. The series is classed as ADME, cell-based, Macaca fascicularis, Hepatocyte.
Series [15] can be described thus: Clearance in Beagle dog hepatocytes relative to hepatic blood flow. The series is classed as ADME, cell-based, Canis lupus familiaris, Hepatocyte. Particulars: read-out: CLH.
A further series relates to Rattus norvegicus. Nature of the series: Clearance in iv dosed Wistar Han rat relative to hepatic blood flow. The class given is ADME, organism-based. To be noted: in vivo.
In series [16] the test system is Cynomolgus monkey. Nature of the series: Clearance in iv dosed cynomolgus monkey relative to hepatic blood flow. Particulars: in vivo. The series is classed as ADME, organism-based, Macaca fascicularis.
A further series has as its system Canis familiaris. Nature of the series: Clearance in iv dosed Beagle dog relative to hepatic blood flow. The series is classed as ADME, organism-based, Canis lupus familiaris. Particulars: in vivo.
Series [17] in a line: Oral bioavailability in Wistar Han rat. The class given is ADME, organism-based. To be noted: in vivo.
Series [18] is described as follows: Oral bioavailability in cynomolgus monkey. The class given is ADME, organism-based, Macaca fascicularis. To be noted: in vivo.
Series [19] in a line: Oral bioavailability in Beagle dog. The class given is ADME, organism-based, Canis lupus familiaris. To be noted: in vivo.
Series [20] has as its system Cynomolgus monkey. Nature of the series: In vivo inhibition of ACTH-stimulated aldosterone level in cynomolgus monkey assessed as change in plasma aldosterone AUC (0 to 3 hrs) at 0.1 mg/kg, iv administered 5 mins before ACTH challenge relative to control. The series is classed as functional, Macaca fascicularis. More on the design: scale not given: the % may be the effect or the level left.

Series [21] relates to Cynomolgus monkey. Nature of the series: In vivo inhibition of ACTH-stimulated aldosterone level in cynomolgus monkey assessed as change in plasma aldosterone AUC (0 to 3 hrs) at 1 mg/kg, iv administered 5 mins before ACTH challenge relative to control. More on the design: scale not given: the % may be the effect or the level left. The class given is functional, Macaca fascicularis.

For series [22], the system named is Cynomolgus monkey. The series is described as follows: In vivo inhibition of ACTH-stimulated aldosterone level in cynomolgus monkey assessed as change in plasma aldosterone AUC (0 to 3 hrs) at 8 mg/kg, iv administered 5 mins before ACTH challenge relative to control. The series is classed as functional, Macaca fascicularis. Details: scale not given: the % may be the effect or the level left.

Series [23] has as its system Cynomolgus monkey. The series is described as follows: In vivo inhibition of ACTH-stimulated aldosterone level in iv dosed cynomolgus monkey assessed as change in plasma aldosterone AUC (0 to 3 hrs) administered 5 mins before ACTH challenge. The class given is functional, organism-based. Particulars: Macaca fascicularis.
Series [24] can be described thus: Plasma concentration in ACTH-stimulated cynomolgus monkey at 0.1 mg/kg, iv administered 5 mins before ACTH challenge measured at 15 mins post dose. The class given is ADME, organism-based, Macaca fascicularis.
Series [25] can be described thus: Unbound plasma concentration in ACTH-stimulated cynomolgus monkey at 0.1 mg/kg, iv administered 5 mins before ACTH challenge measured at 15 mins post dose. The series is classed as ADME, organism-based, Macaca fascicularis. To be noted: in vivo, 0.25 h.
A short description of series [26]: Unbound plasma concentration in ACTH-stimulated cynomolgus monkey at 0.1 mg/kg, iv administered 5 mins before ACTH challenge measured after 3 hrs. The class given is ADME, organism-based, Macaca fascicularis. To be noted: in vivo.
A short description of series [27]: Plasma concentration in ACTH-stimulated cynomolgus monkey at 0.1 mg/kg, iv administered 5 mins before ACTH challenge measured after 3 hrs. The class given is ADME, organism-based, Macaca fascicularis.
Series [28] has as its system Cynomolgus monkey. The series is described as follows: Effect on ACTH-stimulated plasma cortisol level in cynomolgus monkey up to 8 mg/kg, iv administered 5 mins before ACTH challenge measured after 3 hrs. The class given is ADME, organism-based, Macaca fascicularis. To be noted: in vivo.
Series [29] can be described thus: Plasma concentration in ACTH-stimulated cynomolgus monkey at 8 mg/kg, iv administered 5 mins before ACTH challenge measured at 15 mins post dose. The series is classed as ADME, organism-based, Macaca fascicularis.
The nature of series [30]: Unbound plasma concentration in ACTH-stimulated cynomolgus monkey at 8 mg/kg, iv administered 5 mins before ACTH challenge measured at 15 mins post dose. Particulars: in vivo, 0.25 h. The series is classed as ADME, organism-based, Macaca fascicularis.

Data on two compounds can be found in ChEMBL document CHEMBL4184185, “Dihydrobenzisoxazole-4-one compounds are novel selective inhibitors of aldosterone synthase (CYP11B2) with in vivo activity” (Bioorg Med Chem Lett, 2018).

By pIC50 is commonly meant the negative decadic logarithm of the IC50, by convention in mol/L. As a reminder, the IC50 is the concentration at which inhibition is half-maximal. Broadly, the bioavailability is the share of a dose that reaches the circulation, judged against a reference dose that is usually intravenous.

Cytochrome P450 2C9, sequence (P11712 whole entry): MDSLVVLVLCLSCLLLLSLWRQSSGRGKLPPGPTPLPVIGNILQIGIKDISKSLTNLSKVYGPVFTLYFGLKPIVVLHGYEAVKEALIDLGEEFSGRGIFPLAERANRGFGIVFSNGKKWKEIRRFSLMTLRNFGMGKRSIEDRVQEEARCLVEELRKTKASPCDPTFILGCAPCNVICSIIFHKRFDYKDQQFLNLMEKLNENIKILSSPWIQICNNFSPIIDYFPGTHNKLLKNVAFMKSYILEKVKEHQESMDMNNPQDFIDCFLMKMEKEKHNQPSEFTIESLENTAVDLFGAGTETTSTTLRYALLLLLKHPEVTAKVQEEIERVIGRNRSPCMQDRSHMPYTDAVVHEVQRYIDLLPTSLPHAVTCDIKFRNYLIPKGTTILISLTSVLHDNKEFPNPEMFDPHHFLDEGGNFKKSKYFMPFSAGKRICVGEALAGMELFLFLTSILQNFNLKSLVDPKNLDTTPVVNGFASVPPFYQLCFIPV
Cytochrome P450 2D6, sequence (P10635 whole entry): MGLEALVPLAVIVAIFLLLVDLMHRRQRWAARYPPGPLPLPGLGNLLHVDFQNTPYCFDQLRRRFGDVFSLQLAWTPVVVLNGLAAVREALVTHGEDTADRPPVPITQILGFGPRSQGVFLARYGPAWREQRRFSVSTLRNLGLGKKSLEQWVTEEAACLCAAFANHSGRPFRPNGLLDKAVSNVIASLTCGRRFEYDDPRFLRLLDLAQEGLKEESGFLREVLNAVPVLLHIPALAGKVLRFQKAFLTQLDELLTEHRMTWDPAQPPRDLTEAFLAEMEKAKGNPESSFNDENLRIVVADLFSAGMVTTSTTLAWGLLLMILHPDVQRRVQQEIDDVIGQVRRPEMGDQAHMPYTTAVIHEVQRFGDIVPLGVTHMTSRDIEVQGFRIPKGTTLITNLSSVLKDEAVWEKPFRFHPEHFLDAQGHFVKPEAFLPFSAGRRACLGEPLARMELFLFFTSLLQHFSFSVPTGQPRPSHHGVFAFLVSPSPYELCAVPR
Cytochrome P450 3A4, sequence (P08684 whole entry): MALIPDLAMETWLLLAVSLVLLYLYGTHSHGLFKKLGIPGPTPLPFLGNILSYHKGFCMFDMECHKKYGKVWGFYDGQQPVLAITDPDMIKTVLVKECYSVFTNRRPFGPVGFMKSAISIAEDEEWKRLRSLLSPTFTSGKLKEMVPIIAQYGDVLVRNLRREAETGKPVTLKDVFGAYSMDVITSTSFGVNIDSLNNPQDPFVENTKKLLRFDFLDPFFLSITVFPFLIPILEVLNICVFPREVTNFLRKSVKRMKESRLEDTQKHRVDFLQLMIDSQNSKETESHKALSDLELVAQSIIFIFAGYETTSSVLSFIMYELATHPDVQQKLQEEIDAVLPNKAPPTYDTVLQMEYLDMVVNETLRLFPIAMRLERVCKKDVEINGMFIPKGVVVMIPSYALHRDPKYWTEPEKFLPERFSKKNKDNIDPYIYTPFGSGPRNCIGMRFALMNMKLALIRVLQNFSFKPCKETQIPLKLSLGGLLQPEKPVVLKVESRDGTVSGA

`CC1(C)CC(=O)c2c(noc2Cc2ccc(F)cc2)C1`: the pIC50 in series [1] turned out to be 6.8; in series [2], 4.7. Besides, the Ratio IC50 in the series listed under Macaca fascicularis amounted to 130. In addition, the hepatic extraction ratio in [3] is below 0.24; in [4] it was 0.91. For the same compound, in [5], the metabolised at 0.5 h, 10 µM turned out to be 72%. In addition, the Drug metabolism result in [6], in series [7] and in series [8] was “Metabolite_Detected” each time. In addition, the remaining at 0.5 h, 10 µM in series [9] was found to be 28%.

As for `CN(CCO)C(=O)c1ccc(Cc2onc3c2C(=O)CC(C)(C)C3)cc1`, the values for the IC50 (in [1]; in series [10]; against Aromatase [11]) were 0.092 µM, above 31.6 µM and above 31.6 µM, respectively. Also, the pIC50 in series [1] is 7; in series [2], 5. In addition, the Ratio IC50 in the series filed under Macaca fascicularis amounted to 100. Moreover, the “inhibition (INH)” value at Aromatase [12], on Cytochrome P450 2C9, at Cytochrome P450 2D6 and on Cytochrome P450 3A4 was “Not Active” throughout. Further, the hepatic extraction ratio in series [3] was below 0.24; in series [4], below 0.21; in series [13], 0.52; in series [14], 0.34; in [15] it was below 0.3. In addition, the CL in the series on Rattus norvegicus amounted to 24%; in the series with Cynomolgus monkey [16], 32%; in the series on Canis familiaris, 9.7%. For the same compound, the bioavailability in series [17] was 14%; in series [18] it was 91%; in series [19] it was 91%. The Activity is reported as -62.4% with Cynomolgus monkey [20], -87.9% in the series on Cynomolgus monkey [21], -92.3% in the series on Cynomolgus monkey [22] and “Non-Toxic” with Cynomolgus monkey [28]. Further, in the series with Cynomolgus monkey [23], the inhibition entry was “Dose-dependent effect”. Also, the concentration at 0.25 h in series [24] came out at 160 nM; in series [29] it was 9600 nM. The “Cp(f)” value in series [25] was 93 nM; in series [26], 46 nM; in series [30] it was 5700 nM. Further, the concentration at 3 h in series [27] is 78 nM.
